TGI data for 29 molecules are collected here from PubChem BioAssay (NCI).

Test in all cases: NCI tumour cell line growth inhibition, 48 h
Assay [1] relates to SK-OV-3 ovarian.
In assay [2] the test system is NCI-H23 lung.
Assay [3] deals with OVCAR-5 ovarian.
Assay [4] has as its system MALME-3M melanoma.
Assay [5] concerns 786-0 renal.
Assay [6] has as its system KM12 colon.
Assay [7] concerns COLO 205 colon.
The subject of assay [8] is M14 melanoma.
Assay [9] relates to MDA-N.

Structures are written as SMILES.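 Test compounds were applied to cells in 96-well plates for 48 hours at 5 doses. TGI: total growth inhibition.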 Where only a bound is given, the exact number is not on record here.

For the molecule `Cc1nnc(NS(=O)(=O)c2ccc(N=Nc3c(O)c(C(=O)O)cc4ccccc34)cc2)s1`, the TGI in assay [1], in assay [2], in assay [3], in assay [4], in assay [5] and in [6] was > 100 µM throughout. Moreover, the TGI in assay [7], in assay [8] and in [9] was > 100 µM throughout.

Consider `CC(=O)C1=C(C)N2C(=NC3=C(CCc4ccccc43)C2c2ccc(Cl)cc2)S1` (stereo unspecified), for which the TGI in assay [1], in assay [2], in [3], in assay [4], in assay [5] and in assay [6] was > 100 µM throughout. The TGI in assay [7], in [8] and in assay [9] was > 100 µM throughout.

For the molecule `CC(=O)O[C@H]1CC[C@@]2(C)C(=CC[C@@H]3[C@@H]2CC[C@]2(C)C(=O)/C(=C\c4ccccc4)C[C@@H]32)C1`, the TGI in [1], in assay [2], in [3], in assay [4], in [5] and in assay [6] was > 100 µM in each case. The TGI in [7], in assay [8] and in assay [9] was > 100 µM in each case.

In the case of `CC(=O)OC(C(=O)NNC(=O)OC(C)(C)C)c1ccccc1` (stereo unspecified), the TGI in assay [1], in assay [2], in [3], in assay [4], in assay [5] and in assay [6] was > 100 µM each time. For the same molecule, the TGI in assay [7], in assay [8] and in assay [9] was > 100 µM throughout.

With `CCCCCCCC(=O)N1C2CC3CCC2(CS1(=O)=O)C3(C)C` (stereo unspecified), the TGI in assay [1] was > 100 µM; in assay [2] it was > 100 µM; in [3], > 100 µM; in assay [4], 34 µM; in assay [5], 31.7 µM; in assay [6], 74.8 µM. The TGI is 41.2 µM in assay [7], 41 µM in assay [8] and 72 µM in [9].

With `O=C1OCC2=C1C(c1ccc(Cl)cc1)c1cc3c(cc1O2)OCO3` (stereo unspecified), the TGI in [1], in [2], in assay [3], in [4], in assay [5] and in [6] was > 100 µM each time. Further, the TGI in [7] is > 100 µM; in assay [8], > 100 µM; in assay [9] it was 3.9 µM.

In the case of `COc1ccc(Cc2nc3cc(C(F)(F)F)ccc3n2C[C@@H]2CCCN3CCCCC23)cc1` (stereo partly specified), the TGI in [1] stood at 28.4 µM; in [2], 30.9 µM; in assay [3], 27.8 µM; in assay [4], 8.88 µM; in assay [5], 20.3 µM; in assay [6] it was 27.4 µM. Also, the TGI turned out to be 18.9 µM in assay [7], 7.14 µM in assay [8] and 13.2 µM in assay [9].

Take `CC(=O)OCCn1c(Cc2ccc(Cl)cc2)nn(C(C)=O)c1=O`: the TGI in [1], in assay [2], in [3], in [4], in assay [5] and in assay [6] was > 100 µM each time. Further, the TGI in assay [7], in assay [8] and in [9] was > 100 µM throughout.

As for `COc1cc(CCNC2=CC(=O)c3ncccc3C2=O)ccc1O`, the TGI in assay [1] came to 41.7 µM; in assay [2] it was 11.8 µM; in assay [3], 22.7 µM; in [4], 1.98 µM; in [5], 18.1 µM; in assay [6], 24.9 µM. Also, the TGI in assay [7] was 32.6 µM; in [8] it was 3.05 µM; in assay [9] it was 2.72 µM.

As for `N#Cc1nc(CCC(C(=O)O)N2C(=O)c3ccccc3C2=O)oc1N` (stereo unspecified), the TGI in [1], in assay [2], in [3], in assay [4], in assay [5] and in [6] was > 100 µM in each case. Also, the TGI in [7], in assay [8] and in assay [9] was > 100 µM each time.

In the case of `COc1cc(Nc2nc(NS(=O)(=O)c3cc(C)c(Cl)cc3S)n[nH]2)cc(OC)c1OC`, the TGI in assay [1], in [2], in assay [3], in assay [4], in assay [5] and in assay [6] was > 100 µM throughout. Also, the TGI in assay [7], in assay [8] and in [9] was > 100 µM in each case.

As to `O=C1C(CN2CCCC2)CCC1CN1CCCC1` (stereo unspecified), the TGI in assay [1] was > 100 µM; in assay [2] it was 38.2 µM; in [3], > 55.9 µM; in assay [4] it was 29 µM; in assay [5] it was 29.8 µM; in [6], > 100 µM. Moreover, the TGI stood at 17.5 µM in assay [7], 29.7 µM in [8] and 29.9 µM in [9].

As to `C[C@@H](NC(=O)Nc1cccc(C(=O)Nc2cc(C(C)(C)C)ccc2C(=O)O)n1)c1ccccc1`, the TGI in assay [1], in [2], in assay [3], in assay [4], in assay [5] and in [6] was > 100 µM in each case. Also, the TGI was 60.6 µM in [7], > 100 µM in [8] and > 100 µM in assay [9].

For the molecule `CCOC(=O)c1c2ccccc2n2c(=O)n(-c3ccccc3)nnc12`, the TGI is > 85 µM in assay [1]; > 100 µM in [2]; > 100 µM in assay [3]; > 100 µM in assay [4]; > 100 µM in assay [5]; > 100 µM in [6]. The TGI in assay [7], in assay [8] and in assay [9] was > 100 µM throughout.

On to `C=C1C(=O)O[C@H]2[C@@H]3O[C@@](C)(CC/C=C(\C)CCC[C@@H]2C)[C@H](O)C[C@@H]13`, for which the TGI stood at 32.5 µM in [1]; 2.96 µM in assay [2]; 31.2 µM in assay [3]; 53.3 µM in assay [4]; 16.2 µM in assay [5]; 26.2 µM in assay [6]. The TGI amounted to 8.86 µM in [7], 5.86 µM in [8] and 10.1 µM in [9].

As to `CN(C)CCCCN1c2ccccc2Sc2ccc(N=[N+]=[N-])cc21`, the TGI in assay [1] is 26.5 µM; in [2] it was 27.7 µM; in assay [3] it was 13.5 µM; in [4], 3.17 µM; in [5], 23.6 µM; in assay [6], 8.76 µM. Moreover, the figures for the TGI in assay [7], in assay [8] and in assay [9] were 3.13 µM, 3.06 µM and 3.59 µM, respectively.

`CCOC(=O)c1sc(N)nc1N1CCCC1`: the TGI in [1], in [2], in assay [3], in [4], in [5] and in assay [6] was > 100 µM in each case. In addition, the TGI in [7], in assay [8] and in [9] was > 100 µM throughout.

Turning to `O=c1[nH]c2ccccc2c(=O)c2cc3ccccc3cc12`, the TGI is 30.6 µM in [1]; 47.8 µM in assay [2]; > 100 µM in assay [3]; > 100 µM in [4]; 21.9 µM in assay [5]; > 100 µM in [6]. The TGI in [7], in assay [8] and in assay [9] was > 100 µM throughout.

With `COc1ccccc1Nc1nc(N)nc(N)c1N`, the TGI in [1], in assay [2], in assay [3], in [4], in [5] and in assay [6] was > 100 µM in each case. The TGI is > 100 µM in assay [7], > 100 µM in assay [8] and 32.9 µM in assay [9].

For the molecule `CC(C)c1cc(C(C)C)c(S(=O)(=O)N/N=C2\CC3CCC2(C)C3(C)C)c(C(C)C)c1` (stereo unspecified), the TGI in assay [1], in [2], in assay [3], in [4], in assay [5] and in assay [6] was > 100 µM throughout. The figures for the TGI in assay [7], in assay [8] and in assay [9] were 79.3 µM, > 100 µM and 64.8 µM, respectively.

Regarding `COc1ccc2nc3cc(Cl)ccc3c(NCCCN(C)CCCNc3ccc4ncn5c6ccccc6c(=O)c3c45)c2c1`, the TGI turned out to be 6.04 µM in [1]; 6.13 µM in assay [2]; 6.47 µM in [3]; 7.09 µM in assay [4]; 8.7 µM in [5]; 4.99 µM in assay [6]. The results for the TGI in [7], in [8] and in [9] were 3.66 µM, 5.8 µM and 4.77 µM, respectively.

Take `NCCCc1nonc1C(=O)O`: the TGI in assay [1], in assay [2], in [3], in assay [4], in [5] and in [6] was > 100 µM in each case. Further, the TGI in assay [7], in assay [8] and in assay [9] was > 100 µM throughout.

As for `C/C(=C/C(=O)N(C)c1ccccc1Cl)O[Si](C(C)C)(C(C)C)C(C)C`, the TGI is > 100 µM in [1]; 62.2 µM in [2]; 34.8 µM in [3]; 51.5 µM in [4]; 33.1 µM in assay [5]; > 100 µM in assay [6]. Moreover, the values for the TGI in assay [7], in assay [8] and in [9] were 32.6 µM, 70.9 µM and 68.7 µM, respectively.

With `C(#C[C@@]12CCC[C@@H]1NCO2)c1ccc2c(c1)OCO2`, the TGI in [1], in [2], in [3], in assay [4], in [5] and in assay [6] was > 100 µM throughout. For the same molecule, the results for the TGI in assay [7], in assay [8] and in assay [9] were 31.5 µM, 73.1 µM and > 100 µM, respectively.

With `COc1ccc2c(c1)SC1=Nc3sc4cc(OC)ccc4[n+]3CN12`, the TGI was > 100 µM in assay [1]; > 100 µM in assay [2]; > 100 µM in [3]; 57 µM in [4]; 82.7 µM in assay [5]; 71.9 µM in [6]. The TGI in assay [7] was 11.6 µM; in assay [8], > 100 µM; in [9] it was > 100 µM.

Take `COc1ccc(CCN2C(=O)C(=O)C(C(=O)c3ccccc3)C2c2ccccc2)cc1OC` (stereo unspecified): the TGI in assay [1], in [2], in assay [3], in assay [4], in [5] and in [6] was > 100 µM in each case. The TGI in [7], in assay [8] and in [9] was > 100 µM in each case.

Consider `NS(=O)(=O)c1ccc(NNc2c3ccccc3nc3c(C(=O)Nc4ccc(S(N)(=O)=O)cc4)cccc23)cc1`, for which the TGI is > 100 µM in assay [1]; > 100 µM in assay [2]; > 100 µM in assay [3]; 99.8 µM in [4]; > 100 µM in [5]; > 100 µM in assay [6]. Moreover, the TGI in [7], in [8] and in [9] was > 100 µM each time.

On to `CC(C(=O)NCNC(=O)c1ccccc1)C(=O)NCc1ccccc1` (stereo unspecified), for which the TGI in [1], in [2], in assay [3], in assay [4], in assay [5] and in [6] was > 100 µM throughout. Further, the TGI in assay [7], in [8] and in assay [9] was > 100 µM in each case.

Regarding `COc1ccc(CC(COS(=O)(=O)c2ccc(C)cc2)NS(=O)(=O)c2ccc(C)cc2)cc1` (stereo unspecified), the TGI in [1] is 43.7 µM; in assay [2], 40.8 µM; in assay [3], 39.9 µM; in assay [4] it was 27.3 µM; in assay [5], 53.1 µM; in [6], > 77 µM. Besides, the TGI in assay [7] was 34.3 µM; in [8] it was 29.6 µM; in assay [9] it was > 62.6 µM.
